Data taken from patent US9018175B2 (Takeda GmbH, priority 2009, dated 2015).

Experiments:
PDE4B1 = target: T1, PDE4B1 (Homo sapiens, UniProt Q07343); experiment: Inhibition of PDE4B1 activity (SPA, [3H]cAMP); assay type: biochemical; conditions: recombinant PDE4B1 expressed in SF21 cells; 0.5 pM [sic] cAMP; values given as bins; read-out: PDE4B1 inhibitory values measured as −logIC50 (converted)
T1 construct: made in house; host or cells: SF21 insect cells (baculovirus; pCR-Bac vector)
Summary of the method: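 Recombinant human PDE4B1 (Sf21 cell 1000 g supernatant) in 20 mM Tris pH 7.4, 0.1 mg/ml BSA, 5 mM Mg2+, […] with [3H]cAMP tracer, enzyme giving 10-20% conversion. After 5 min preincubation at 37 °C, 15 min reaction, stopped by SPA beads with IBMX; IC50 by non-linear regression.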

human PDE5 = target: T2, human PDE5 (Homo sapiens, UniProt O76074); experiment: Inhibition of PDE5 activity (SPA, [3H]cGMP, platelet lysate); assay type: biochemical; conditions: PDE5 from human platelet lysate; values given as bins; read-out: PDE5A inhibitory values measured as −logIC50 (converted)
T2 construct: from tissue; host or cells: human platelets from fresh donor blood (10,000 g supernatant of sonicated platelets)
Summary of the method: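 Human platelet lysate served as PDE5 source, with 1 μM motapizone and 10 nM PDE2 inhibitor present; […] plus [3H]cGMP tracer, pH 7.4, 5 mM Mg2+, 10-20% substrate turnover. After 5 min preincubation, 15 min at 37 °C, stopped with SPA beads and IBMX; IC50 by non-linear regression.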

T1 sequence (Q07343 whole entry): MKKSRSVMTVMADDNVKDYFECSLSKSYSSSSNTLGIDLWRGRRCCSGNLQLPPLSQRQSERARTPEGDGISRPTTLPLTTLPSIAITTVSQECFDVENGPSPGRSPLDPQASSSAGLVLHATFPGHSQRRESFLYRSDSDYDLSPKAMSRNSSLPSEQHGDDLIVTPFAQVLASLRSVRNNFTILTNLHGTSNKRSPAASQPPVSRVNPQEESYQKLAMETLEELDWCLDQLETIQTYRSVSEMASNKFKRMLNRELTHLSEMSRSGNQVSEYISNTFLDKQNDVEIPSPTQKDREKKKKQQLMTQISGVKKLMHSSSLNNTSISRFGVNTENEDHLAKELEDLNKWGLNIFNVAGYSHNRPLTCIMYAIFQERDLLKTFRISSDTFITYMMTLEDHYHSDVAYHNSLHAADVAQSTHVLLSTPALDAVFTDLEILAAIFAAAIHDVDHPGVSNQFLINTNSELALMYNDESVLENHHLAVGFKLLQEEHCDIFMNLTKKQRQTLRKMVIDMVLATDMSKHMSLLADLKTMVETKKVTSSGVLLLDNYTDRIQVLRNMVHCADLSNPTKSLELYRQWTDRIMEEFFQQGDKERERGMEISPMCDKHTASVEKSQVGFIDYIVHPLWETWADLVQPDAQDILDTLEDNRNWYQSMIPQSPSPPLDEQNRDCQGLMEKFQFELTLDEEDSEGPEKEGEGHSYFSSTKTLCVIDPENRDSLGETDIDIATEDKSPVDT

IC50 (PDE4B1) [µM]	IC50 (human PDE5) [µM]	Compound
0.001 to 0.01	< 0.01	CCOc1cc2c(cc1OC)C(c1ccc(C(=O)N3CCC(n4c(=O)c5sc(-c6ccccc6)cc5n(Cc5cc(CC)no5)c4=O)CC3)cc1)=N[C@@H]1CCSC[C@H]21 [Example 3, 3-[1-({4-[(4aR,10bR)-9-ethoxy-8-methoxy-3,4,4a,10b-tetrahydro-1H-thiopyrano[4,3-c]isoquinolin-6-yl]phenyl}carbonyl)piperidin-4-yl]-1-[(3-ethylisoxazol-5-yl)methyl]-6-phenylthieno[3,2-d]pyrimidine-2,4(1H,3H)-dione]
> 0.01	< 0.01	CCOc1cc2c(cc1OC)C(c1ccc(C(=O)N3CCC(n4c(=O)c5sc(-c6ccccc6)cc5n(Cc5nnn(CC)n5)c4=O)CC3)cc1)=N[C@@H]1CCSC[C@H]21 [Example 14, 3-[1-({4-[(4aR,10bR)-9-ethoxy-8-methoxy-3,4,4a,10b-tetrahydro-1H-thiopyrano[4,3-c]isoquinolin-6-yl]phenyl}carbonyl)piperidin-4-yl]-1-[(2-ethyl-2H-tetrazol-5-yl)methyl]-6-phenylthieno[3,2-d]pyrimidine-2,4(1H,3H)-dione]
0.001 to 0.01	< 0.01	CCOc1cc2c(cc1OC)C(c1cccc(C(=O)N3CCC(n4c(=O)c5sc(-c6ccccc6)cc5n(Cc5nc(CC)no5)c4=O)CC3)c1)=N[C@@H]1CCSC[C@H]21 [Example 27, 3-[1-({3-[(4aR,10bR)-9-ethoxy-8-methoxy-3,4,4a,10b-tetrahydro-1H-thiopyrano[4,3-c]isoquinolin-6-yl]phenyl}carbonyl)piperidin-4-yl]-1-[(3-ethyl-1,2,4-oxadiazol-5-yl)methyl]-6-phenylthieno[3,2-d]pyrimidine-2,4(1H,3H)-dione]

The next lines start with the compound.

Compound	IC50 (PDE4B1) [µM]	IC50 (human PDE5) [µM]
CCOc1cc2c(cc1OC)C(c1ccc(C(=O)N3CCC(n4c(=O)c5sc(-c6cc(OC)ccc6OC)cc5n(Cc5nnn(CC)n5)c4=O)CC3)cc1)=N[C@@H]1CCSC[C@H]21 [Example 36, 6-(2,5-dimethoxyphenyl)-3-[1-({4-[(4aR,10bR)-9-ethoxy-8-methoxy-3,4,4a,10b-tetrahydro-1H-thiopyrano[4,3-c]isoquinolin-6-yl]phenyl}carbonyl)piperidin-4-yl]-1-[(2-ethyl-2H-tetrazol-5-yl)methyl]thieno[3,2-d]pyrimidine-2,4(1H,3H)-dione]	> 0.01	< 0.01
CCOc1cc2c(cc1OC)C(c1ccc(C(=O)N3CCC(n4c(=O)c5sc(-c6ccccc6)cc5n(Cc5cnn(CC)c5)c4=O)CC3)cc1)=N[C@@H]1CCSC[C@H]21 [Example 17, 3-[1-({4-[(4aR,10bR)-9-ethoxy-8-methoxy-3,4,4a,10b-tetrahydro-1H-thiopyrano[4,3-c]isoquinolin-6-yl]phenyl}carbonyl)piperidin-4-yl]-1-[(1-ethyl-1H-pyrazol-4-yl)methyl]-6-phenylthieno[3,2-d]pyrimidine-2,4(1H,3H)-dione]	0.001 to 0.01	> 0.1
CCOc1cc2c(cc1OC)C(c1ccc(C(=O)N3CCC(n4c(=O)c5sc(-c6ccccc6)cc5n(Cc5cnn(CC)n5)c4=O)CC3)cc1)=N[C@@H]1CCSC[C@H]21 [Example 21, 3-[1-({4-[(4aR,10bR)-9-ethoxy-8-methoxy-3,4,4a,10b-tetrahydro-1H-thiopyrano[4,3-c]isoquinolin-6-yl]phenyl}carbonyl)piperidin-4-yl]-1-[(2-ethyl-2H-1,2,3-triazol-4-yl)methyl]-6-phenylthieno[3,2-d]pyrimidine-2,4(1H,3H)-dione]	0.001 to 0.01	0.01 to 0.1
CCOc1cc2c(cc1OC)C(c1ccc(C(=O)N3CCC(n4c(=O)c5sc(-c6cccc(F)c6F)cc5n(Cc5nnn(CC)n5)c4=O)CC3)cc1)=N[C@@H]1CCSC[C@H]21 [Example 42, 6-(2,3-difluorophenyl)-3-[1-({4-[(4aR,10bR)-9-ethoxy-8-methoxy-3,4,4a,10b-tetrahydro-1H-thiopyrano[4,3-c]isoquinolin-6-yl]phenyl}carbonyl)piperidin-4-yl]-1-[(2-ethyl-2H-tetrazol-5-yl)methyl]thieno[3,2-d]pyrimidine-2,4(1H,3H)-dione]	> 0.01	0.01 to 0.1
